Measurements reported in patent US10828372B2, “Compositions and methods for the inhibition of fibrosis” (WISCONSIN ALUMNI RESEARCH FOUNDATION, priority 2017, dated 2020).
pKd: −log10 of the molar value. Where no end group is shown, it is not given here.

Experiments:
human plasma FN = assay: Isothermal Titration calorimetry (ITC) of peptide binding to fibronectin; settings: pH 7.4 PBS, 25° C., triplicate
Description: Isothermal Titration calorimetry (ITC): ITC experiments were performed using a VP-ITC microcalorimeter (MicroCal, LLC) with a cell volume of 2.2 mL. In a typical experiment, the cell was filled with 1.4 mL of 2 μM human plasma FN and the syringe was filled with 1 mL of 28 μM FUD or PEG-FUD peptides. The temperature was set to 25° C. The titration experiment was performed in 39 injections (1×1, 4×4, and 34×8 μL) delivered in 120 sec intervals. Prior to injection, both FN and the peptides were dialyzed in separate dialysis bags overnight into the same PBS buffer (pH 7.4) solution. Routine analysis involved discarding of the first data point and subtraction of peptide into PBS buffer control run. Data were fit using one set of sites model Lavenberg-Marquardt nonlinear regression in Origin 7.0.
The binding of 10 kDa, 20 kDa, and 40 kDa PEG-FUD to FN was studied using Isothermal Titration calorimetry (ITC). This technique was used to determine the thermodynamic parameters as well as the binding constant (Kd) of the interaction. The peptide was injected into a human plasma FN solution in PBS at pH 7.4 and 25° C. in triplicate runs. […] A Kd of 6 (±3) nM was detected for FUD:FN. […] Similar entropy change of −65 (±3) cal/mol, −74 (±7) cal/mol, −66 (±7) cal/mol, and −73 (±2) and enthalpy change of −31 (±1) kcal/mol, −34 (±2) kcal/mol, −30 (±1) kcal/mol, and −32.5 (±0.5) kcal/mol were detected for the interaction of FUD and 10 kDa, 20 kDa, and 40 kDa PEG-FUD with FN, respectively. […] This observation is contrary to the expectation of PEG attachment diminishing a drug's affinity for its binding partner and presents an unexpected but desired feature of the PEG-FUD peptide.

[1] = tested on: human proximal tubular epithelial cells (HK-2); assay: Cell viability of proximal tubular epithelial cells (AlamarBlue); format: cell-based; settings: doses up to 500 nM
Text: Endogenous (cellular) fibronectin assembly assay: This immunochemical assay measures the ECM incorporation of EDA-containing fibronectin synthesized by human fibroblasts and human proximal tubular epithelial cells. Human proximal epithelial cells, HK-2 cells, were obtained from ATCC (CRL-2190). The EDA+ fibronectin is a splice variant synthesized and secreted by a variety of cells mostly during embryonic development and during wound healing, ECM remodeling, or fibrotic conditions in the adult. […] Fluorescence of AlamarBlue® was read at 555 nm excitation and 585 nm emission. […] Similar to the measurement of exogenous A488-FN fluorescence, A488-EDA fluorescence was read using microplate reader equipped with bottom-readout capabilities at 485 nm excitation and 525 nm emission. Fluorescence of wells to which A488-IgG was added, i.e., background green fluorescence from non-specific IgG binding and from the cell monolayer was subtracted from fluorescence values of wells incubated with A488-EDA. Data is presented for fibronectin fibrillogenesis or cell viability as percent of fluorescence values (AlexaFluor® 488 fluorescence or AlamarBlue®, respectively) for wells with no peptides.

UUO kidneys = assay: Unilateral Ureteral Obstruction (UUO) model of kidney fibrosis; format: in vivo, mouse; settings: compared to saline-treated UUOs

Chain of human plasma FN (P02751 32-608 limits assumed): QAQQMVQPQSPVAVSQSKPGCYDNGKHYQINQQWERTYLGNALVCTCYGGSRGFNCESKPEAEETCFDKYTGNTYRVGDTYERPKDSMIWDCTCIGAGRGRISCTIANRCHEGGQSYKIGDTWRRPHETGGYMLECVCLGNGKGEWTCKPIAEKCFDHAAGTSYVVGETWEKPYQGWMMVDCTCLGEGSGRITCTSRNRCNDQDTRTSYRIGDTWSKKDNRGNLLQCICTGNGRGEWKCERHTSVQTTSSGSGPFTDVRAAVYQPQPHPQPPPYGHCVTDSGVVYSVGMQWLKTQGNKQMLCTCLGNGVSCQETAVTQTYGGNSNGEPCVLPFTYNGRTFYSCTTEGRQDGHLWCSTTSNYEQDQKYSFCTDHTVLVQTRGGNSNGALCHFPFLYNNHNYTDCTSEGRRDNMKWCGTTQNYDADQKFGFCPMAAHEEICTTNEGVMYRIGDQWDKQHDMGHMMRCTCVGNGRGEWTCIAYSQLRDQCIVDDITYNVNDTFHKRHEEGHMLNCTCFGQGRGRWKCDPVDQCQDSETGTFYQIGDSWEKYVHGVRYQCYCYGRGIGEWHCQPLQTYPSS

Row | Substance | pKd (human plasma FN) | human proximal tubular epithelial cell viability [1] | decrease of fibronectin in ECM fractions (immunoblot, normalized to H3) (UUO kidneys)
1 | PEG-FUD: PEGylated FUD prepared as in Example 1, PEG size not stated; approximately 27 kDa by mass spectrometry, likely the 20 kDa conjugate (KDQSPLAGESGETEYITEVYGNQQNPVDIDKKLPNETGFSGNMVETEDT; not fully specified (N-terminus); also: PEG size not given here) | ~8.00 | approximately 100% | approximately 80%
2 | FUD: 49 amino acid FUD peptide, SEQ ID NO: 1, recombinantly expressed, His-tag removed; inhibitor of fibronectin fibrillogenesis (KDQSPLAGESGETEYITEVYGNQQNPVDIDKKLPNETGFSGNMVETEDT; human) [reference compound] | 8.22 | approximately 100% | approximately 60%
